Results reported in a melting point compilation (Tetko et al.; mined from patent text by program, amines drawn as free bases though some values may be those of a salt).

For `COCC(=O)N(c1c(C)ccc(CC(=O)Nc2cc(Cl)cc(Cl)c2)c1C)C(C)C(=O)OC` (stereo not given), the melting point was 126 to 128 °C. In the case of `OCc1nc2cc(Br)cnc2[nH]1`, the melting point is reported as 230 to 233 °C. `Cc1ccc2[nH]c(=O)c(C#N)c(Cl)c2c1` gave a melting point of 264 °C. Work on `Cc1cc(C)c2nnn(C(=O)N3CCOCC3)c2c1` yielded a melting point of 115 °C. In the case of `CCc1nc(NC(=O)C2=C(O)c3ccc4ccccc4c3S(=O)(=O)N2C)sc1C`, the melting point is reported as 233 to 234 °C. Molecule `CN(C)C(=Nc1ccccc1N1CCOCC1)N1CCOCC1` has a melting point of 126 to 128 °C. `O=C(O)c1cn(-c2ccc(F)cc2)c2cc(N3CCC(N=Cc4ccc([N+](=O)[O-])cc4)C3)c(F)cc2c1=O` (stereo not given) gave a melting point of 247 to 248 °C. `CCCn1c(-c2ccc(-n3ccnc3)cc2)cnc1[C@H](Cc1ccccn1)N(C=O)c1cc2cc(F)ccc2o1` showed a melting point of 77 to 81 °C. With `COc1cc(COc2nn(-c3ccc(C(F)(F)F)cc3)cc2/C=C/CO)ccc1OCc1nc(-c2ccccc2)oc1C` the melting point was 118 to 119 °C. With `N#CCCNC(=O)c1n[nH]cc1NC(=O)c1ccccc1` the melting point was 186 to 187 °C. `O=C(c1ccc(Cl)cc1)c1nccc2ccccc12` gave a melting point of 100 to 101 °C. For `COc1ccc(C=CC(=O)O)cc1-c1cc2c(cc1OCCCCCC(N)=O)C(C)(C)CCC2(C)C`, the melting point was 133 to 135 °C. Molecule `Cc1cc(OCc2ccccc2)cc(=O)o1` has a melting point of 90 to 91 °C. For `N#Cc1ccc(OCCCCC(=O)O)cc1`, the melting point was 160 °C. `CC(C)n1nc(-c2nc(-c3nc(-c4ccccc4)cs3)c(N)nc2-c2ccccc2)ccc1=O` showed a melting point of 240 to 242 °C. `Cc1ccc(C(=O)NCC2CCN(C[C@H]3COc4ccc(Cl)cc4O3)CC2)c(N)n1` gave a melting point of 160 to 163 °C. `CC1(C)Oc2ccc(C#N)cc2C(c2cccn(Cc3ccccc3)c2=O)C1O` (stereo not given) showed a melting point of 120 to 122 °C. `CCCCCOC(=O)C1=C(C)NC(C)=C(C(=O)NC(C)C)C1c1ccccc1[N+](=O)[O-]` (stereo not given) gave a melting point of 186 to 189 °C. For `Cn1ccc(=O)c(OCc2ccccc2)c1C(O)c1cccnc1` (stereo not given), the melting point was 169 to 174 °C. Molecule `COc1cc(Cl)c2nc(-c3ccc(OC)c(F)c3)cc(Br)c2c1` has a melting point of 156 to 157 °C. In the case of `Cc1cnc(C2=NC(C)(C(C)C)C(=O)N2)c(C(=O)C(=O)N(C)c2ccccc2)c1` (stereo not given), the melting point is reported as 153 to 156 °C. With `CC(C)[C@H](NC(=O)N(C)Cc1csc(C2CCCC2)n1)C(=O)N[C@@H](Cc1ccccc1)C[C@H](O)[C@H](Cc1ccccc1)NC(=O)OCc1cncs1` the melting point was 70 to 71 °C. Molecule `CCN(CC)c1ccc(-c2cc(-c3ccc(C(=O)O)cc3)ccc2CCCNC2CCCC2)cc1C(C)(C)C` has a melting point of 255 °C. In the case of `CCCCCOC(=O)C(N)C=CCP(=O)(O)O` (stereo not given), the melting point is reported as 160 to 161 °C. `COc1c2c(cc3ccc(=O)oc13)CC(OC)O2` (stereo not given) showed a melting point of 131 to 132 °C. For `CC(=O)OCCc1cc2c(s1)CCC1CC(=O)N(c3ccc(C)cc3)N=C21` (stereo not given), the melting point was 73 to 75 °C. `N#CC(C(N)=S)=C(N)N1CCCC1` gave a melting point of 164 °C. With `COc1ccccc1C(=O)c1c(SC)nn(-c2c(Cl)cc(Cl)cc2Cl)c1N` the melting point was 200 to 202 °C. Work on `O=C(Nc1cccnn1)N1CCN(c2nccc(-c3cc(F)ccc3F)n2)CC1` yielded a melting point of 271 to 272 °C. Molecule `COc1ccc(C2=CCC(=O)CC2)c2c1OCCO2` has a melting point of 56 to 59 °C. `Cc1cc(C)n2nc(S(=O)(=O)N(C)c3c(Cl)cccc3Cl)nc2n1` showed a melting point of 220 to 222 °C. For `COC(=O)C(=O)c1ccc(OCCCc2ccc3ccccc3c2)cc1`, the melting point was 97 to 99 °C. With `COc1ccc(S(=O)(=O)N2c3ccc(Br)cc3-c3ccccc3C2C(C)(C)C)cc1` (stereo not given) the melting point was 195 to 198 °C. `CCOC(=O)c1cc([N+](=O)[O-])c(N)nc1C(=O)OCC` gave a melting point of 120 to 122 °C. For `COc1cc(P(c2ccccc2)c2ccccc2)c(Br)c(OC)n1`, the melting point was 150 to 151 °C. Molecule `Cc1cc(-c2ccc(O)nc2)cc(C=O)c1N` has a melting point of 231 to 234 °C. In the case of `O=C(O)Cc1ccc(CN2CCN(C(c3ccccc3)c3ccccc3)CC2)cc1`, the melting point is reported as 183 to 185 °C. With `OCCCc1ccc2c(c1)Cc1cc(CCCO)ccc1-2` the melting point was 160 to 180 °C. Work on `CSC(Oc1cc(C)c(Br)c(C)c1)C(=O)NC(C)(C)C` (stereo not given) yielded a melting point of 123 to 125 °C. With `CCNc1nnc2ccc(-c3cccc(N(CC)C(=O)CC)c3)nn12` the melting point was 164 to 166 °C. With `O=C(O)Cn1c2ccccc2c2sccc(=O)c21` the melting point was 275 to 278 °C. For `N#Cc1cnn(-c2c(Cl)cc(C(F)(F)F)cc2Cl)c1N`, the melting point was 165 to 167 °C. `CCc1nccn1-c1nc(-c2ccc(Cl)cc2)c(CCC(=O)O)o1` gave a melting point of 197 to 199 °C. Molecule `O=C(Nc1ccc2nc(CN3CCCC3)ccc2c1)C1CCN(c2ccc(Cl)cc2)CC1` has a melting point of 204 to 206 °C. `Clc1cccc(-c2nc(NC3CCCCC3)c3ccccc3n2)n1` showed a melting point of 218 to 221 °C. `CS(=O)(=O)c1cccc(NC(=O)c2cnn3c(C4CC4)cc(-c4ccc(Cl)cc4)nc23)c1` gave a melting point of 235 to 238 °C. In the case of `COc1ccc(C(=O)c2c(N)sc3c2CN(C(=O)OCc2ccccc2)C3)cc1OC`, the melting point is reported as 195 to 196 °C. Work on `CCn1c(=O)[nH]c2ncccc2c1=O` yielded a melting point of 240 to 241 °C. `CC(=O)Nc1ccc(CCCOCCCCCCNCC(O)c2cc(Cl)c(N)c(Cl)c2)nc1` (stereo not given) showed a melting point of 66 to 67 °C. In the case of `COC(=O)c1ccc2c(c1)CN(c1c(F)cc3c(=O)c(C(=O)O)cn(-c4ccc(F)cc4)c3c1F)C2`, the melting point is reported as 236 to 240 °C. Work on `CCOC(=O)C(=CC(C)c1ccc(Br)cc1)CC(=O)O` (stereo not given) yielded a melting point of 107 °C. Work on `c1ccc(COc2ccc(Cc3nnc(Nc4ccc5c(c4)ncn5-c4ccccc4)c4ccccc34)cc2)cc1` yielded a melting point of 229 to 231 °C. `CC(=O)c1nc(N)nc(N)c1-c1ccc(Cl)cc1` gave a melting point of 206 to 208 °C. `Cc1cc2c(cc1Cl)NC(=O)C2c1ccccc1Cl` (stereo not given) gave a melting point of 186 °C. For `OCCON=Cc1ccc2ccccc2c1`, the melting point was 87 °C. In the case of `CCOc1cc(N(CC)CC)ccc1C1(c2c(C)n(CC)c3ccccc23)OC(=O)c2ccccc21` (stereo not given), the melting point is reported as 193 °C. In the case of `Cn1c(Cn2ccnc2)nc2ccccc21`, the melting point is reported as 151 to 152 °C. `CC(=O)N1CCO[C@@H]2c3ccccc3OCC[C@H]21` (relative stereo) gave a melting point of 97 to 98 °C. Work on `Cn1ncc2c1CS(=O)c1cn[nH]c1-2` (stereo not given) yielded a melting point greater than 270 °C. `CCOC(=O)[C@@]1(C)CSC(c2ccc(OCCOCCOC)cc2O)=N1` gave a melting point of 68 to 70 °C. Molecule `Nc1ncc(Sc2ccc(F)cc2F)s1` has a melting point of 116 to 117 °C. `OC(CCN1CC=C(c2ccccc2)CC1)c1ccc(Cl)cc1` (stereo not given) gave a melting point of 141 °C. With `CCC1CCC(Oc2cc(F)cc(C(=O)Nc3ccc(OCCN4CCOCC4)c4ccccc34)c2)CC1` (stereo not given) the melting point was 102 to 105 °C. Molecule `CC1(C)OCCCOc2c[nH]cc2OCCCOC1(C)C` has a melting point of 48 to 50 °C. With `CCCCCCCCCCCC(=O)c1c[nH]c2ccccc12` the melting point was 129 to 130 °C. Work on `COc1ccc2c(Cc3c(Cl)cncc3Cl)nn(CC(=O)O)c(=O)c2c1` yielded a melting point of 221 to 222 °C. Work on `NC(=O)Cc1ccc2[nH]ccc2c1` yielded a melting point of 146 to 147 °C. In the case of `c1ccc(-n2nnc3ccc(Cn4ccnc4)cc32)cc1`, the melting point is reported as 110 °C. Molecule `COc1ccc(C(=O)Nc2ccc(OCCCl)cc2)c(N)c1` has a melting point of 167 to 168 °C. For `COc1nc(C(F)(F)F)c(F)c(=O)n1-c1cc(OC(C)C)c(Cl)cc1F`, the melting point was 144 to 146 °C. For `CCC(=O)NCCC1CCc2ccc3c(c21)NC(=O)CO3` (stereo not given), the melting point was 216 to 219 °C. Work on `Cc1sc2c(Cl)c(Cl)c(OCC(=O)O)cc2c1C` yielded a melting point of 218 to 219 °C. With `CCOC(=O)C1=COc2cc(C(C)(C)C)c(OC(C)=O)cc2O1` the melting point was 144 °C. Molecule `OCC1(c2ccccc2)CCN(CCC(c2ccccc2)(c2ccccc2)c2ccccn2)CC1` has a melting point of 148 to 151 °C. Molecule `C/C=C/CC(=O)N[C@H]1CC[C@H](CCN2CCC(c3cccc4c3CCO4)CC2)CC1` has a melting point of 196 °C. With `Cc1ccc(-c2c(N)ncnc2Cl)cc1` the melting point was 168 to 171 °C. For `CC(C)(C)c1cc(CN(c2cccnc2)S(=O)(=O)c2cccc([N+](=O)[O-])c2)cc(C(C)(C)C)c1O`, the melting point was 99 to 107 °C. Molecule `CN1C(C)(C)CC(OC(=O)CCc2cc(-n3nc4ccc(S(=O)(=O)c5ccccc5)cc4n3)c(O)c(C(C)(C)C)c2)CC1(C)C` has a melting point of 45 to 52 °C. With `O=C(O)Cc1c[nH]c2cc(C3CC3)nn2c1=O` the melting point was greater than 300 °C. With `O=C(O)CNc1cc(Cl)ccc1[N+](=O)[O-]` the melting point was 147 to 148 °C. Molecule `CCCn1nc(-c2ccc(Cl)c(Cl)c2)c(-n2ccnc2)c1SC` has a melting point of 91 to 93 °C. `CC(=O)NC[C@H]1CN(c2ccc(C3(F)CCNCC3)c(F)c2)C(=O)O1` showed a melting point of 163 to 165 °C. With `COc1ccc(-c2cc(=O)n(C(C)C)nc2-c2ccc(OC)cc2)cc1` the melting point was 128 to 129 °C. For `CCOC(=O)c1c(C)oc(=O)c(-c2c(C)cc(C)cc2C)c1OC(C)=O`, the melting point was 107 to 109 °C. `N#Cc1ccc(Oc2ccc(Cl)c(Cl)c2)c(C=O)c1` showed a melting point of 122 to 126 °C. For `C=CC(=O)NC(C)c1ccc(Cl)cc1` (stereo not given), the melting point was 103 to 104 °C. In the case of `CCCCCCCCCCCC1CCC(O)C(=O)O1` (stereo not given), the melting point is reported as 95 to 96 °C. With `COc1cc(C(=O)N2Cc3ccc(C(=O)NCc4ccccc4C)n3Cc3ccccc32)ccc1-c1ccccc1C` the melting point was 204 °C. `CCOCCOc1ccc(C(C)C)c(NC(=O)CN2CCN(CCSc3nc4ccccc4o3)CC2)c1C(C)C` gave a melting point of 100 to 103 °C. `CCOC(=O)Nn1cccc1` gave a melting point of 60 to 61 °C. `CC(C)[Si](C#Cc1ccc(-c2nc3cc(C#N)c(C#N)cc3[nH]2)cc1)(C(C)C)C(C)C` showed a melting point of 347 to 348 °C. Work on `COC(=O)Cc1ccc(OCc2nc(-c3ccccc3)oc2C)cc1` yielded a melting point of 74 to 75 °C. `CC(C)(O)c1cc(Br)ccc1N` showed a melting point of 62 to 63 °C. Molecule `CCN1C(=O)C2CCCN2Cc2ccccc21` (stereo not given) has a melting point of 138 to 140 °C. In the case of `Cc1cc2c(cc1O)C(C)(C)CC1(CC(C)(C)c3cc(OCCCn4ccnc4)c(C)cc3O1)O2` (stereo not given), the melting point is reported as 209 to 211 °C. `CC(C)c1ccc(Oc2ccc(CCNc3ncnc4nccnc34)cc2)cc1` showed a melting point of 105 to 106 °C. With `O=C(O)c1ccc(NCc2cccc(C(F)(F)F)c2)cn1` the melting point was 216 to 217 °C. `COC(=O)CCN(CC1CC2c3cccc4[nH]cc(c34)CC2N(C)C1)C(=O)NC(C)C` (stereo not given) gave a melting point of 112 to 115 °C. Molecule `C=CCNC(=O)c1ccccc1C(c1ccc(O)cc1)c1ccc(O)cc1` has a melting point of 179 to 181 °C. `ON=c1cc(-c2cc3cccn3cn2)oc2ccc(OCCOc3ccncc3)cc12` showed a melting point of 198 to 200 °C.
